Data on nine compounds can be found in ChEMBL document CHEMBL6121018, “Targeting JNK3 for Alzheimer's disease: Design and synthesis of novel inhibitors with aryl group diversity utilizing wide pocket” (Eur J Med Chem, 2025).

Series [1] can be described thus: in vitro. Particulars: human, plasma.
Description: Stability in human plasma assessed as parent compound remaining at 60 mins
A short description of series [2]: in vitro. As to conditions: human, plasma. The source holds these as a separate data set.
Description: Stability in human plasma assessed as parent compound remaining at 30 mins
For series [3], the target named is T1, Mitogen-activated protein kinase 10 (Homo sapiens, UniProt P53779). Put plainly: Inhibition of JNK3 (unknown origin) using ATF as substrate in presence of [gamma-33P]ATP incubated for 40 mins by scintillation counter analysis.
The nature of series [4]: in vitro. As to conditions: Sprague-Dawley, rat, primary cortical neurons.
Description: Cytotoxicity against Sprague-Dawley rat Primary cortical neuron assessed as cell viability incubated for 24 hrs by MTT assay
Series [5] deals with Glycogen synthase kinase-3 alpha (Homo sapiens, UniProt P49840). Put plainly: Inhibition of GSK3alpha (unknown origin) using 33P-ATP as substrate incubated for 2 hrs by P81 filter-binding method.
Series [6] addresses Mitogen-activated protein kinase 9 (Homo sapiens, UniProt P45984).
Description: Inhibition of JNK2 (unknown origin) using 33P-ATP as substrate incubated for 2 hrs by P81 filter-binding method
The target in series [7] is Mitogen-activated protein kinase 8 (Homo sapiens, UniProt P45983).
Description: Inhibition of JNK1 (unknown origin) using 33P-ATP as substrate incubated for 2 hrs by P81 filter-binding method
The target of series [8] is Mitogen-activated protein kinase 14 (Homo sapiens, UniProt Q16539).
Description: Inhibition of p38alpha (unknown origin) using 33P-ATP as substrate incubated for 2 hrs by P81 filter-binding method
For series [9], the target named is Glycogen synthase kinase-3 beta (Homo sapiens, UniProt P49841). As to the kind of experiment: Inhibition of GSK3beta (unknown origin) using 33P-ATP as substrate incubated for 2 hrs by P81 filter-binding method.
The target in series [10] is T1, Mitogen-activated protein kinase 10. As to the kind of experiment: Inhibition of JNK3 (unknown origin).
For series [11], the system named is Cortical neurone. As to the kind of experiment: Neuroprotective activity against amyloid beta (1 to 42 residues)-induced Sprague-Dawley rat primary cortical neurons assessed as cell viability at 10 uM pretreated with compound for 90 mins followed by amyloid beta (1 to 42 residues) induction for 24 hrs and measured on day 5 by MTT assay (reference value: 100%). As to conditions: 121.5 h, read-out: Activity. (Formazan colour is commonly taken as a measure of viable cells.)

The nature of series [12]: in vitro. Particulars: human, liver microsomes. A general note: Liver microsomes are vesicles of endoplasmic reticulum, rich in cytochrome P450 enzymes.
The nature of series [13]: in vitro. Particulars: PAMPA. In general terms: In PAMPA a lipid-coated filter parts donor from acceptor wells.
Description: Permeability coefficient of compound by PAMPA
In series [14] the test system is Cortical neurone. As to the kind of experiment: Neuroprotective activity against amyloid beta (1 to 42 residues)-induced Sprague-Dawley rat primary cortical neurons assessed as cell viability at 20 uM pretreated with compound for 90 mins followed by amyloid beta (1 to 42 residues) induction for 24 hrs and measured on day 5 by MTT assay (reference value: 100%). As to conditions: 121.5 h, time 7290 min, read-out: Activity. Type of series: functional.

For orientation: amount remaining means what is left of the initial amount, in per cent. Broadly, the IC50 is the concentration at which inhibition is half-maximal. As usually defined, the Papp is a coefficient for how fast a substance crosses the barrier. A high value points to fast passage.

T1 sequence (P53779 whole entry): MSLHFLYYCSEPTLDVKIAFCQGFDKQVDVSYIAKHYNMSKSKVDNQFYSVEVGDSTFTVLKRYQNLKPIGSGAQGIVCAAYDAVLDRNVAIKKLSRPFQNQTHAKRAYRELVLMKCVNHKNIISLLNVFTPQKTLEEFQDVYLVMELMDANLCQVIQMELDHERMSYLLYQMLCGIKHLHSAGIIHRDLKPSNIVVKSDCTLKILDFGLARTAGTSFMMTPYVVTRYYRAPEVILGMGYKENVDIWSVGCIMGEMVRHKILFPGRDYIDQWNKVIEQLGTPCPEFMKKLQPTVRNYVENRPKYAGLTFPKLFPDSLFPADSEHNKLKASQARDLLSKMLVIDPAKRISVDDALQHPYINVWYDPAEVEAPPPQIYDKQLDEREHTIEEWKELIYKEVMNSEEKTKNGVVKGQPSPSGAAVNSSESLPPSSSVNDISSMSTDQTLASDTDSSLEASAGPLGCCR
Chain of Mitogen-activated protein kinase 14 (Q16539 whole entry): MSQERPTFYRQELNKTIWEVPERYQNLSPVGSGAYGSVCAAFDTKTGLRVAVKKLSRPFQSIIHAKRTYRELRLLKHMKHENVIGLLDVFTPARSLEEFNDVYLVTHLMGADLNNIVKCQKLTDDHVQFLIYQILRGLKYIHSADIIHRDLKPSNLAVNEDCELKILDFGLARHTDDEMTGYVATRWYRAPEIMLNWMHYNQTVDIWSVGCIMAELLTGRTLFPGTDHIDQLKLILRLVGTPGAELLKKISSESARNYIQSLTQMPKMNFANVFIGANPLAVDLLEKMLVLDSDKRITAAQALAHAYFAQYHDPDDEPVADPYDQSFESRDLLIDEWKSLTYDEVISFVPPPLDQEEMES
Chain of Glycogen synthase kinase-3 beta (P49841 whole entry): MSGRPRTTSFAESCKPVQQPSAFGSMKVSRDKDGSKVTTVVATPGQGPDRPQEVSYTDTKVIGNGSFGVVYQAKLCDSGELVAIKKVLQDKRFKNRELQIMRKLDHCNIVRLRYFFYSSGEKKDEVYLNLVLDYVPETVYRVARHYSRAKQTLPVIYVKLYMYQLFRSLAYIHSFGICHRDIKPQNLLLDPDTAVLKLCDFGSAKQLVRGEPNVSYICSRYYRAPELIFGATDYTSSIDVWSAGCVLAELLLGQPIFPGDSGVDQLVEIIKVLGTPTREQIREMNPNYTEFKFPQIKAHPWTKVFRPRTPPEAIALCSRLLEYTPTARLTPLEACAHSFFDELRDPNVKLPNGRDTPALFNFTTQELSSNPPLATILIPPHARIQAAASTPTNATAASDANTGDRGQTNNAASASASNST
Chain of Mitogen-activated protein kinase 8 (P45983 whole entry): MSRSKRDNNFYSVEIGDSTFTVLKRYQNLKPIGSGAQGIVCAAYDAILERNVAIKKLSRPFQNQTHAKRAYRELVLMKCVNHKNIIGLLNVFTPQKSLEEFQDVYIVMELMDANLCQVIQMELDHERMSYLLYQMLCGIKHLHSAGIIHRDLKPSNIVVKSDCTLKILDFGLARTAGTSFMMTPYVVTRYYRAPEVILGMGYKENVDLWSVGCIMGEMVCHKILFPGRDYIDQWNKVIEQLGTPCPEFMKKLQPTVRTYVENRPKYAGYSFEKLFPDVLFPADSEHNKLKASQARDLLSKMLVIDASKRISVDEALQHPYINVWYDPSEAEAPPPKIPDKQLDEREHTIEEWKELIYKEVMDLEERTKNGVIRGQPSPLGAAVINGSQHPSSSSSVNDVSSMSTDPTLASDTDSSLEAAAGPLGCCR
Chain of Glycogen synthase kinase-3 alpha (P49840 whole entry): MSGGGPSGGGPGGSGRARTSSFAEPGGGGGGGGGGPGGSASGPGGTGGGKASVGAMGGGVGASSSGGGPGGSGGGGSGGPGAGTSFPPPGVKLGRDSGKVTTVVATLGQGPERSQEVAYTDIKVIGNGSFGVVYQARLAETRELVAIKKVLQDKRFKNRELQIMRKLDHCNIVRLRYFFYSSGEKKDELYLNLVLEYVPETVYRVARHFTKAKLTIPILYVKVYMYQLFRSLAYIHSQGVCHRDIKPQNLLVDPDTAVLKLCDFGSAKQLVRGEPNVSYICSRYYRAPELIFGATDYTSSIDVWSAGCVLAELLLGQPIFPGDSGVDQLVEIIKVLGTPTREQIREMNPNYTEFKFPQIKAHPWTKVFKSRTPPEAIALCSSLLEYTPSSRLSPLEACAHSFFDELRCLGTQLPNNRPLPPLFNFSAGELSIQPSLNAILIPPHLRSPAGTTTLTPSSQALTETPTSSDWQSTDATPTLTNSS
Chain of Mitogen-activated protein kinase 9 (P45984 whole entry): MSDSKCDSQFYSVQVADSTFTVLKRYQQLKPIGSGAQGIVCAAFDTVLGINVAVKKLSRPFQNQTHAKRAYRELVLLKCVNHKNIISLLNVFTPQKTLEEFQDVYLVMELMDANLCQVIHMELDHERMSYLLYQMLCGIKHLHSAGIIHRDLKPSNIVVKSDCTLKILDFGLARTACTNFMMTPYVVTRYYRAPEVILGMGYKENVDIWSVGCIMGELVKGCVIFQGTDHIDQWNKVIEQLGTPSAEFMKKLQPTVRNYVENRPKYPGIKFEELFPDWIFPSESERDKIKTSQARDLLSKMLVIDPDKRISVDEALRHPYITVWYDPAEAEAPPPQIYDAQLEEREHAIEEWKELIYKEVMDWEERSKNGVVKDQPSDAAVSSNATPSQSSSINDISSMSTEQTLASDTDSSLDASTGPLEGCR

`CCOC(=O)[C@H](CCc1ccccc1)N[C@@H](C)C(=O)N1CCC[C@H]1C(=O)O` came in with an amount remaining at 1 h in series [1] of 90%. Also, the amount remaining at 0.5 h in series [2] is 95%.

On to `CN1CCN(c2ccc(Nc3nccc(-n4cc(/C=C/c5ccccc5)c(C(N)=O)n4)n3)cc2)CC1`, for which the IC50 in series [3] amounted to 276 nM. Moreover, in series [4], the viability at 24 h is 104%.

Consider `CCOC(=O)c1nn(-c2ccnc(Nc3ccc(N4CCC(N(C)C)CC4)cc3)n2)cc1/C=C/c1cccc(Br)c1`, for which, in series [3], the IC50 came to 8330 nM.

In the case of `CN(C)C1CCN(c2ccc(Nc3nccc(-n4cc(/C=C/c5ccccc5)c(C(N)=O)n4)n3)cc2)CC1`, the IC50 in [3] was 96 nM. The viability at 24 h in [4] came to 102%.

Consider `NC(=O)c1nn(-c2ccnc(N[C@H]3CCCN(C(=O)C4CC4)C3)n2)cc1/C=C/c1ccccc1`, for which the IC50 in series [5] was 35 nM; in [6], 450 nM; in series [7], 80 nM; in series [8], “Not_active”; in series [9], 14 nM.

In turn, `N#CCc1cc(-c2ccc(Cl)c(Cl)c2)n(-c2ccnc(N[C@H]3CCN(C(=O)C4CC4)C3)n2)n1` returned an IC50 in series [10] of 227 nM. In addition, the viability at 24 h in series [4] was 103%. The viability at 10 µM in series [11] amounted to 14%.

The compound `COc1ccc(CCN(C)CCCC(C#N)(c2ccc(OC)c(OC)c2)C(C)C)cc1OC` (stereo not drawn) returned a fraction remaining at 1 h in series [12] of 20.3%.

`CC(=O)[C@H]1CC[C@H]2[C@@H]3CCC4=CC(=O)CC[C@]4(C)[C@H]3CC[C@]12C` [PROGESTERONE] returned a Papp in series [13] of 40.7 ×10⁻⁶ cm/s.

`Oc1ccc(/C=C/c2cc(O)cc(O)c2)cc1` [RESVERATROL]: in series [14], the viability at 20 µM amounted to 85%.
